According to patent publication US6015560A, “Antibody recognizing endothelial cell ligand for leukocyte CR3” (priority 1995, dated 2000):

Test system: C3bi
Test: Inhibition of binding of 12.1F9 to E-C3bi by peptides
Parameters: species or system human
Excerpt: The antibody 12.1F9 maps to the region 1279-2011 of FHA. When the derived amino acid sequence of this region was compared to that of C3, a region of 11 amino acids with similar sequence was found between FHA residues 1408-1418 and C3 residues 1187-1197 (Table 14). […] However, the FHA-20-mer and the homologous C3-derived peptide blocked binding by up to 60%.

In the case of filamentous hemagglutinin [native FHA], the “block of binding of 12.1F9 to C3bi (in words)” value is reported as “blocked binding almost completely” and the Adherence index (peptides 50 μg/ml, normalized to a control value of 100) is reported as 16 ± 16.
